Test results: patent US9409884B2 (Rigel Pharmaceuticals, Inc., priority 2012, dated 2016)
pEC50: −log10 of the molar value. Where a name gives a salt, the structure may show the parent alone.

Molecular target: AMPK
Assay: AMPK activation, enzyme-linked immunosorbent assay
Format: biochemical
Conditions: Table 8, compounds of Table 1
Outline: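 AMPK activation by test compounds was measured by enzyme-linked immunosorbent assay.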

SMILES | pEC50 | pEC50 (formate salt)
O=C(NC1CCN(Cc2cccnc2)CC1)c1cc2ccc(OC3CCN(c4ccc(C(F)(F)F)cc4)CC3)cc2o1 [Compound 1-96, N-(1-(pyridin-3-ylmethyl)piperidin-4-yl)-6-(1-(4-(trifluoromethyl)phenyl)piperidin-4-yloxy)benzofuran-2-carboxamide] | > 7.00 | 
N#Cc1ccccc1CN1CCC(NC(=O)c2cc3ccc(OC4CCN(c5ccc(OC(F)(F)F)cc5)CC4)cc3o2)CC1 [Compound 1-97, N-(1-(2-cyanobenzyl)piperidin-4-yl)-6-(1-(4-(trifluoromethoxy)phenyl)piperidin-4-yloxy)benzofuran-2-carboxamide] | > 7.00 | 
N#Cc1ccccc1CN1CCC(NC(=O)c2cc3ccc(OC4CCN(c5ccc(C(F)(F)F)cc5)CC4)cc3o2)CC1 [Compound 1-98, N-(1-(2-cyanobenzyl)piperidin-4-yl)-6-(1-(4-(trifluoromethyl)phenyl)piperidin-4-yloxy)benzofuran-2-carboxamide] | > 7.00 | 
O=C(NC1CCN(Cc2ccc(C(F)(F)F)cc2)CC1)c1cc2ccc(OC3CCN(c4ccc(C(F)(F)F)cc4)CC3)cc2o1 [Compound 1-99, N-(1-(4-(trifluoromethyl)benzyl)piperidin-4-yl)-6-(1-(4-(trifluoromethyl)phenyl)piperidin-4-yloxy)benzofuran-2-carboxamide] | > 7.00 | 
O=C(NC1CCN(Cc2ccc(C(F)(F)F)cc2)CC1)c1cc2cc(OC3CCN(c4ccc(C(F)(F)F)cc4)CC3)ccc2o1 [Compound 1-100, N-(1-(4-(trifluoromethyl)benzyl)piperidin-4-yl)-5-(1-(4-(trifluoromethyl)phenyl)piperidin-4-yloxy)benzofuran-2-carboxamide] | > 7.00 | 
O=C(NC1CCN(Cc2cccnc2)CC1)c1cc2cc(OC3CCN(c4ccc(C(F)(F)F)cc4)CC3)ccc2o1 [Compound 1-101, N-(1-(pyridin-3-ylmethyl)piperidin-4-yl)-5-(1-(4-(trifluoromethyl)phenyl)piperidin-4-yloxy)benzofuran-2-carboxamide] | > 7.00 | 
CN(C(=O)c1cc2cc(OC3CCN(c4ccc(C(F)(F)F)cc4)CC3)ccc2o1)C1CCN(C(=O)OC(C)(C)C)CC1 [Compound 1-102, tert-butyl 4-(N-methyl-5-(1-(4-(trifluoromethyl)phenyl)piperidin-4-yloxy)benzofuran-2-carboxamido) piperidine-1-carboxylate] | 5.30 to 6.00 | 
CN(C(=O)c1cc2cc(OC3CCN(c4ccc(C(F)(F)F)cc4)CC3)ccc2o1)C1CCNCC1 [Compound 1-103, N-methyl-N-(piperidin-4-yl)-5-(1-(4-(trifluoromethyl)phenyl)piperidin-4-yloxy)benzofuran-2-carboxamide] | 5.30 to 6.00 | 
CN(C(=O)c1cc2cc(OC3CCN(c4ccc(C(F)(F)F)cc4)CC3)ccc2o1)C1CCN(Cc2ccncc2)CC1 [Compound 1-104, N-methyl-N-(1-(pyridin-4-ylmethyl)piperidin-4-yl)-5-(1-(4-(trifluoromethyl)phenyl)piperidin-4-yloxy)benzofuran-2-carboxamide] | 6.30 to 7.00 | 
O=C(NC1CCN(Cc2ccncc2)CC1)c1cc2cc(OC3CCN(c4ccc(C(F)(F)F)cc4)CC3)ccc2o1 [Compound 1-105, N-(1-(pyridin-4-ylmethyl)piperidin-4-yl)-5-(1-(4-(trifluoromethyl)phenyl)piperidin-4-yloxy)benzofuran-2-carboxamide, formate salt] |  | > 7.00
O=C(NC1CCN(S(=O)(=O)c2cccnc2)CC1)c1cc2ccc(OC3CCN(c4ccc(C(F)(F)F)cc4)CC3)cc2o1 [Compound 1-106, N-(1-(pyridin-3-ylsulfonyl)piperidin-4-yl)-6-(1-(4-(trifluoromethyl)phenyl)piperidin-4-yloxy)benzofuran-2-carboxamide] | 6.30 to 7.00 | 
CN(C(=O)c1cc2cc(OC3CCN(c4ccc(C(F)(F)F)cc4)CC3)ccc2o1)C1CCN(Cc2ccc(C#N)cc2)CC1 [Compound 1-107, N-(1-(4-cyanobenzyl)piperidin-4-yl)-N-methyl-5-(1-(4-(trifluoromethyl)phenyl)piperidin-4-yloxy)benzofuran-2-carboxamide] | > 7.00 | 
O=C(NC1CCN(S(=O)(=O)c2cccnc2)CC1)c1cc2ccc(OC3CCN(c4ccc(OC(F)(F)F)cc4)CC3)cc2o1 [Compound 1-108, N-(1-(pyridin-3-ylsulfonyl)piperidin-4-yl)-6-(1-(4-(trifluoromethoxy)phenyl)piperidin-4-yloxy)benzofuran-2-carboxamide] | 6.30 to 7.00 | 
CN(C(=O)c1cc2cc(OC3CCN(c4ccc(C(F)(F)F)cc4)CC3)ccc2o1)C1CCN(Cc2cccnc2)CC1 [Compound 1-109, N-methyl-N-(1-(pyridin-3-ylmethyl)piperidin-4-yl)-5-(1-(4-(trifluoromethyl)phenyl)piperidin-4-yloxy)benzofuran-2-carboxamide] | > 7.00 | 
CN(C(=O)c1cc2cc(OC3CCN(c4ccc(C(F)(F)F)cc4)CC3)ccc2o1)C1CCN(Cc2cccc(C#N)c2)CC1 [Compound 1-110, N-(1-(3-cyanobenzyl)piperidin-4-yl)-N-methyl-5-(1-(4-(trifluoromethyl)phenyl)piperidin-4-yloxy)benzofuran-2-carboxamide] | > 7.00 | 
CN(C(=O)c1cc2cc(OC3CCN(c4ccc(C(F)(F)F)cc4)CC3)ccc2o1)C1CCN(Cc2ccccc2C#N)CC1 [Compound 1-111, N-(1-(2-cyanobenzyl)piperidin-4-yl)-N-methyl-5-(1-(4-(trifluoromethyl)phenyl)piperidin-4-yloxy)benzofuran-2-carboxamide] | 6.30 to 7.00 | 
O=C(NC1CCN(C(=O)c2ccncc2)CC1)c1cc2ccc(OC3CCN(c4ccc(C(F)(F)F)cc4)CC3)cc2o1 [Compound 1-112, N-(1-isonicotinoylpiperidin-4-yl)-6-(1-(4-(trifluoromethyl)phenyl)piperidin-4-yloxy)benzofuran-2-carboxamide] | > 7.00 | 
CC(C)(C)OC(=O)N1CCC(NC(=O)c2cc3cc(OC4CCN(Cc5ccc(C#N)cc5)CC4)ccc3o2)CC1 [Compound 1-113, tert-butyl 4-(5-(1-(4-cyanobenzyl)piperidin-4-yloxy)benzofuran-2-carboxamido) piperidine-1-carboxylate] | 6.30 to 7.00 | 
N#Cc1ccc(CN2CCC(Oc3ccc4oc(C(=O)NC5CCN(Cc6ccccc6)CC5)cc4c3)CC2)cc1 [Compound 1-114, N-(1-benzylpiperidin-4-yl)-5-(1-(4-cyanobenzyl)piperidin-4-yloxy)benzofuran-2-carboxamide] | 6.30 to 7.00 | 
O=C(NC1CCN(C(=O)c2ccncc2)CC1)c1cc2cc(OC3CCN(c4ccc(C(F)(F)F)cc4)CC3)ccc2o1 [Compound 1-115, N-(1-isonicotinoylpiperidin-4-yl)-5-(1-(4-(trifluoromethyl)phenyl)piperidin-4-yloxy)benzofuran-2-carboxamide] | > 7.00 | 
NC(=O)c1ccc(CN2CCC(Oc3ccc4oc(C(=O)NC5CCN(Cc6ccccc6)CC5)cc4c3)CC2)cc1 [Compound 1-116, N-(1-benzylpiperidin-4-yl)-5-(1-(4-carbamoylbenzyl)piperidin-4-yloxy)benzofuran-2-carboxamide] | 6.30 to 7.00 | 
CN(C(=O)c1cc2cc(OC3CCN(c4ccc(C(F)(F)F)cc4)CC3)ccc2o1)C1CCN(Cc2ccccn2)CC1 [Compound 1-117, N-methyl-N-(1-(pyridin-2-ylmethyl)piperidin-4-yl)-5-(1-(4-(trifluoromethyl)phenyl)piperidin-4-yloxy)benzofuran-2-carboxamide] | > 7.00 | 
CN(C(=O)c1cc2cc(OC3CCN(c4ccc(C(F)(F)F)cc4)CC3)ccc2o1)C1CCN(C(=O)c2ccncc2)CC1 [Compound 1-118, N-(1-isonicotinoylpiperidin-4-yl)-N-methyl-5-(1-(4-(trifluoromethyl)phenyl)piperidin-4-yloxy)benzofuran-2-carboxamide] | 6.30 to 7.00 | 
CN(C(=O)c1cc2cc(OC3CCN(c4ccc(C(F)(F)F)cc4)CC3)ccc2o1)C1CCN(Cc2ccc(C(F)(F)F)cc2)CC1 [Compound 1-119, N-methyl-N-(1-(4-(trifluoromethyl)benzyl)piperidin-4-yl)-5-(1-(4-(trifluoromethyl)phenyl)piperidin-4-yloxy)benzofuran-2-carboxamide] | > 7.00 | 
CC(C)(C)OC(=O)N1CC[C@@H](NC(=O)c2cc3cc(OC4CCN(c5ccc(C(F)(F)F)cc5)CC4)ccc3o2)C1 [Compound 1-120, (R)-tert-butyl 3-(5-(1-(4-(trifluoromethyl)phenyl)piperidin-4-yloxy)benzofuran-2-carboxamido) pyrrolidine-1-carboxylate] | 5.30 to 6.00 | 
O=C(N[C@@H]1CCNC1)c1cc2cc(OC3CCN(c4ccc(C(F)(F)F)cc4)CC3)ccc2o1 [Compound 1-121, (R)-N-(pyrrolidin-3-yl)-5-(1-(4-(trifluoromethyl)phenyl)piperidin-4-yloxy)benzofuran-2-carboxamide] | < 5.00 | 
O=C(N[C@@H]1CCN(Cc2ccncc2)C1)c1cc2cc(OC3CCN(c4ccc(C(F)(F)F)cc4)CC3)ccc2o1 [Compound 1-122, (R)-N-(1-(pyridin-4-ylmethyl)pyrrolidin-3-yl)-5-(1-(4-(trifluoromethyl)phenyl)piperidin-4-yloxy)benzofuran-2-carboxamide] | 6.30 to 7.00 | 
O=C(N[C@@H]1CCN(Cc2cccnc2)C1)c1cc2cc(OC3CCN(c4ccc(C(F)(F)F)cc4)CC3)ccc2o1 [Compound 1-123, (R)-N-(1-(pyridin-3-ylmethyl)pyrrolidin-3-yl)-5-(1-(4-(trifluoromethyl)phenyl)piperidin-4-yloxy)benzofuran-2-carboxamide] | 6.30 to 7.00 | 
O=C(N[C@@H]1CCN(Cc2ccccn2)C1)c1cc2cc(OC3CCN(c4ccc(C(F)(F)F)cc4)CC3)ccc2o1 [Compound 1-124, (R)-N-(1-(pyridin-2-ylmethyl)pyrrolidin-3-yl)-5-(1-(4-(trifluoromethyl)phenyl)piperidin-4-yloxy)benzofuran-2-carboxamide] | 5.30 to 6.00 | 
O=C(N[C@@H]1CCN(C(=O)c2ccncc2)C1)c1cc2cc(OC3CCN(c4ccc(C(F)(F)F)cc4)CC3)ccc2o1 [Compound 1-125, (R)-N-(1-isonicotinoylpyrrolidin-3-yl)-5-(1-(4-(trifluoromethyl)phenyl)piperidin-4-yloxy)benzofuran-2-carboxamide] | 5.30 to 6.00 | 
